± gives the expanded uncertainty stated by the source.
Assay: xn = mol fraction of the nth substance listed
Settings: 298.2 K, 100 kPa, Liquid, Pycnometric method

## Cc1ccc(-c2ncc(Cl)cc2-c2ccc(S(C)(=O)=O)cc2)cn1 [etoricoxib] + CC(O)CO
x1 = 0.06047
  mass density: 1059.7 ± 1.3 kg/m3

## Cc1ccc(-c2ncc(Cl)cc2-c2ccc(S(C)(=O)=O)cc2)cn1 [etoricoxib] + CO
x1 = 0.03786
  mass density: 805 ± 0.9 kg/m3

## Cc1ccc(-c2ncc(Cl)cc2-c2ccc(S(C)(=O)=O)cc2)cn1 [etoricoxib] + O
x1 = 1.58e-05
  mass density: 994.8 ± 1 kg/m3

## Cc1ccc(-c2ncc(Cl)cc2-c2ccc(S(C)(=O)=O)cc2)cn1 [etoricoxib] + OCC(O)CO
x1 = 0.05656
  mass density: 1298 ± 1.6 kg/m3
